The values below come from patent EP0765868A1, “Substituted bezoyl guanidines, process for their preparation, their use as antiarrhythmics or diagnostic agent as well as pharmaceuticals containing them” (HOECHST AKTIENGESELLSCHAFT, priority 1995, dated 1997).

Counter-ions that a name gives are not always drawn.

Assay [1] concerns the target T1, Na^+/H^+-Exchanger (Oryctolagus cuniculus, UniProt P23791).
T1 construct: den Na^+-Influx in die Erythrocyten via Na^+/H^+-Austausch flammenphotometrisch bestimmen zu können; from tissue; host or cells: Erythrocytes in whole blood from the ear arteries of cholesterol-fed White New Zealand rabbits
The experiment in a line: Inhibition of the Na+/H+ exchanger of rabbit erythrocytes (amiloride-sensitive Na+ influx, flame photometry). The assay is classed as cell-based, Kaninchen. The following applies: Kaninchenerythrocyten; hyperosmolar salt-sucrose medium, pH 7,4, 37°C. From the text: Inhibition des Na^+/H^+-Exchangers von Kaninchenerythrocyten
Weiße Neuseeland-Kaninchen (Ivanovas) erhielten eine Standard-Diät mit 2% Cholesterin für sechs Wochen, um den Na^+/H^+-Austausch zu aktivieren und so den Na^+-Influx in die Erythrocyten via Na^+/H^+-Austausch flammenphotometrisch bestimmen zu können. Das Blut wurde den Ohrarterien entnommen und durch 25 IE Kalium-Heparin ungerinnbar gemacht. Ein Teil jeder Probe wurde zur Doppelbestimmung des Hämatokrits durch Zentrifugieren benutzt. Aliquots von jeweils 100 µl dienten zur Messung des Na^+-Ausgangsgehalts der Erythrocyten.
Um den Amilorid-sensitiven Natrium-Influx zu bestimmen, wurden 100 µl jeder Blutprobe in jeweils 5 ml eines hyperosmolaren Salz-Sucrose-Mediums (mmol/l: 140 NaCl, 3 KCl, 150 Sucrose, 0,1 Ouabain, 20 Tris-hydroxymethylaminomethan) bei pH 7,4 und 37°C inkubiert. Die Erythrocyten wurden danach dreimal mit eiskalter MgCl2-Ouabain-Lösung (mmol/l: 112 MgCl2, 0,1 Ouabain) gewaschen und in 2,0 ml destilliertem Wasser hämolysiert. Der intrazelluläre Natriumgehalt wurde flammenphotometrisch bestimmt.
Der Na^+-Nettoinflux wurde aus der Differenz zwischen Natrium-Ausgangswerten und dem Natriumgehalt der Erythrocyten nach Inkubation errechnet. Der Amilorid-hemmbare Natrium-Influx ergab sich aus der Differenz des Natriumgehalts der Erythrocyten nach Inkubation mit und ohne Amilorid 3 x 10^-4 mol/l. Auf diese Weise wurde auch bei den erfindungsgemäßen Verbindungen verfahren.

In assay [2] the test system is Rattenherzen. The settings on record: isolated animal hearts (rat); Eur. Heart J. 9 (suppl.1): 167 (1988); cited from earlier work.

T1 sequence (P23791 whole entry): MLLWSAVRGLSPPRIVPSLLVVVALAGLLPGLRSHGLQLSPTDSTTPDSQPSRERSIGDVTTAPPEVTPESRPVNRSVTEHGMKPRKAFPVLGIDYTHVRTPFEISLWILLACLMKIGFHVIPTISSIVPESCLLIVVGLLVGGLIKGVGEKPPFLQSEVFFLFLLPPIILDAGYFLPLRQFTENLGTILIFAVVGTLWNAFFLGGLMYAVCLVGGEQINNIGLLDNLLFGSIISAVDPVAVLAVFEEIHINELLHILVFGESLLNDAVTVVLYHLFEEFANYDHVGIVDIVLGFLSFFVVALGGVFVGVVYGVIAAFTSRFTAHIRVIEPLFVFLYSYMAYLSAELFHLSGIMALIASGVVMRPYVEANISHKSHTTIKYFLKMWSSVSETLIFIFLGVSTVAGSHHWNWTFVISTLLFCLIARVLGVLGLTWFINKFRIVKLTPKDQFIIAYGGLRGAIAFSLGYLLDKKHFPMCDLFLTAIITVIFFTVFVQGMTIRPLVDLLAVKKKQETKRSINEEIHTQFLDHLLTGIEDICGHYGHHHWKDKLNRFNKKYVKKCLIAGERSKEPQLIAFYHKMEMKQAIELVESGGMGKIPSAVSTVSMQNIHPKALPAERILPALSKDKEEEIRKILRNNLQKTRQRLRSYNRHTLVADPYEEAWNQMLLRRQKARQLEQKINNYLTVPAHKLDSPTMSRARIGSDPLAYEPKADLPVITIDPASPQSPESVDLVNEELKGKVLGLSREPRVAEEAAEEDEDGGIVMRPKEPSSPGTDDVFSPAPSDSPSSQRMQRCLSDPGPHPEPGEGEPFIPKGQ

A word on the IC50: it is the point on the concentration scale where inhibition reaches its midpoint. Regarding `NC(N)=NC(=O)c1ccc(C(O)(O)C(F)(F)F)cc1` [Beispiel 1, 4-(1',1'-Bishydroxy-2',2',2'-trifluor)-ethyl-benzoylguanidinhydrochlorid], in assay [1], the IC50 turned out to be 1.5 µM.
Still for that read-out and setting: to `NC(N)=NC(=O)c1ccc(F)c(C(O)(O)C(F)(F)F)c1` [Beispiel 2, 4-Fluor-3-(1',1'-Bishydroxy-2',2',2'-trifluor)ethyl-benzoylguanidinhydrochlorid] belongs 1 µM; to `CC(C)c1ccc(C(=O)N=C(N)N)cc1C(O)(O)C(F)(F)F` [Beispiel 3, 4-Isopropyl-3-(1',1'-bis-hydroxy-2',2',2'-trifluor)-ethylbenzoylguanidin-hydrochlorid], 0.3 µM.
`CCN(c1nc(N)c(C(=O)NC(=N)N)nc1Cl)C(C)C` [Ethylisopropylamilorid]: the “künstlich ausgelöstes Kammerflimmern” value in assay [2] is listed as “Noch potenter als Amilorid”.
Consider `N=C(N)NC(=O)c1nc(Cl)c(N)nc1N` [Amilorid], for which the “künstlich ausgelöstes Kammerflimmern” value in assay [2] is listed as “völlig unterdrückt”.
